Reference: patent US8697661B2, “Use of spinosyns and spinosyn compositions against herpesviridae viral infections” (priority 2009, dated 2014)

Tests used:
[1] = tested on: Respiratory Syncytial Virus Strain A2-RSV; type: cell-based; details: 9.5 μg/ml spinosad, virus load of 50-100 infectious units, HEp2 cells
Plasmodium vinckei = test: In vivo test against Plasmodium vinckei parasites in mice; details: BALB/c female mice, 25 mg/kg intraperitoneally daily for 6 consecutive days in DMSO; vs DMSO control; P=0.0085
[2] = tested on: pancreatic tumor xenograph; test: Mouse pancreatic tumor xenograph assay; type: in vivo; details: for tumor volume on day1: baseline
[3] = mouse code 3, total spinosad dosed 390 mg/kg i.p. over 20 days
[4] = mouse code 6, total spinosad dosed 360 mg/kg i.p. over 20 days
[5] = mouse code 9, total spinosad dosed 540 mg/kg i.p. over 20 days
[6] = mouse code 10, total spinosad dosed 540 mg/kg i.p. over 20 days
[7] = mouse code 12, total spinosad dosed 615 mg/kg i.p. over 20 days
[8] = mouse code 13, total spinosad dosed 585 mg/kg i.p. over 20 days

Spinosad
inhibition of virus [1]: no inhibition
reduction in the number of Plasmodium vinckei parasites (Plasmodium vinckei): 70%
body weight ([2]; CD-1 athymic nude male mice, spinosad in DMSO i.p., on top of weight loss by DMSO alone): some weight loss
% difference of tumor volume day 21 vs day1 ([2]; mouse code 3, total spinosad dosed 390 mg/kg): −42%
tumor volume on day 21 [2, 3]: 107.7 mm^3
tumor volume on day1 [2, 3]: 184.7 mm^3
% difference of tumor volume day 21 vs day1 ([2]; mouse code 6, total spinosad dosed 360 mg/kg): −2%
tumor volume on day 21 [2, 4]: 254.7 mm^3
tumor volume on day1 [2, 4]: 260.6 mm^3
% difference of tumor volume day 21 vs day1 ([2]; mouse code 9, total spinosad dosed 540 mg/kg): −33%
tumor volume on day 21 [2, 5]: 119.8 mm^3
tumor volume on day1 [2, 5]: 179.9 mm^3
% difference of tumor volume day 21 vs day1 ([2]; mouse code 10, total spinosad dosed 540 mg/kg): −44%
tumor volume on day 21 [2, 6]: 128.9 mm^3
tumor volume on day1 [2, 6]: 228.9 mm^3
% difference of tumor volume day 21 vs day1 ([2]; mouse code 12, total spinosad dosed 615 mg/kg): −11%
tumor volume on day 21 [2, 7]: 142.1 mm^3
tumor volume on day1 [2, 7]: 159.4 mm^3
% difference of tumor volume day 21 vs day1 ([2]; mouse code 13, total spinosad dosed 585 mg/kg): 6%
tumor volume on day 21 [2, 8]: 246.5 mm^3
tumor volume on day1 [2, 8]: 233.3 mm^3
mean volume change ([2]; spinosad treated group (6 mice), total 360-615 mg/kg i.p. over 20 days, day 21 vs day1, DMSO control 54%, P < 0.02): −21%
mean tumor volume decreased by ([2]; spinosad treated group, 21st day, control/DMSO group increased 54%, P-value <0.02): 21%
